# According to patent US7053043B1, “Pharmaceutical compositions comprising synthetic peptide copolymers and methods for preventing and treating GVHD and HVGD” (Yeda Research and Development Co.Ltd., priority 1999, dated 2006):
# Values joined by “and” are separate entries in the source; they are usually repeats but may differ in a detail not shown here. Identical values can stand only once.
# How the values were obtained:
# [1] = tested on: GVHD in B10.D2 → BALB/c recipients; test: Murine lethal GVHD model after bone marrow transplantation, B10.D2/nSnJ→BALB/c; format: in vivo, mice; conditions: for overall incidence of GVHD: 600 μg per injection (ip + sc)
# Experimental: The murine GVHD model of B10.D2/nSnJ→BALB/c mice (both H-2^d) across minor histocompatibility barriers, was selected since it is similar to the MHC matched bone marrow transplantation in humans. For the induction of GVHD, 10×10^6 bone marrow and 100×10^6 spleen cells from B10.D2 mice were injected into lethally irradiated (8.0 Gy) BALB/c recipients. […] Recipient mice were 12–13 weeks at the time of transplantation.
# Based on previous studies with Cop 1 in EAE (Sela et al., 1990; Teitelbaum et al., 1971; Teitelbaum et al., 1973) and class II-binding competitor peptides in GVHD (Schlegel et al., 1994), the dosage of 600 μg per injection was selected, half of which was administered intraperitoneally (ip), whereas the other half was given subcutaneously (sc). Treatment of BALB/c recipient mice was initiated on day −1, followed by daily injections for the first five weeks starting on day 0 after transplantation. The frequency of injections was tapered to three times per week for the subsequent two weeks and to two times per week for another two weeks and then discontinued. Throughout the experiment, copolymers and controls were administered once a week with incomplete Freund's adjuvant (IFA) ip as a depot dose (Schlegel et al., 1994). Treatment was discontinued 9 weeks after transplantation.
# Mice were followed up daily for 140 days after bone marrow transplantation for signs of GVHD. Disease severity was assessed by mortality, loss of body weight, and by the extent of macroscopic skin involvement scored on a cumulative scale (from min O— max 8): head 1, neck 1, back (1/3, 2/3, 3/3) 1–3, front (1/3, 2/3, 3/3) 1–3. Skin biopsies were examined as previously described (Schlegel et al., 1994).
# (ii) Effect of Copolymer 1 Treatment on the Incidence, Onset and Severity of GVHD. […] For the first five weeks after transplant mice were injected daily as outlined in Materials and Methods, followed by a tapering schedule over an additional four weeks.
# (iii) Effect of Copolymer 1 treatment on survival. […]
# [2] = tested on: proliferation of B10.PL (H-2u) responder cells to PL/J stimulator cells; test: Mixed lymphocyte reaction (MLR) across minor histocompatibility barriers; format: cell-based, mice; conditions: 20 μg/well, Cop 1 Batch I, 1:1 ratio of responder to stimulator cells
# Experimental: Responder cells for MLR reactions across major histocompatibility barriers were harvested from spleen of non-immunized mice while responder cells for MLR across minor histocompatibility barriers were harvested from mice which were preimmunized with irradiated (30 Gy) 50×10^6 stimulator spleen cells 21 days before. Responder cells (5×10^5 spleen cells per well) were tested for their proliferative response by plating with different amounts (2.5 to 10×10^5) of irradiated stimulator cells, in presence or absence of various peptide inhibitors (10–100 μg per well). Cultures were set up in 200 μl media containing 10% FCS in flat-bottom microtiter plates. After 4 days of incubation, cultures were pulsed with 1 μCi of [^3H]thymidine for an additional 16 hours. Results are represented as mean counts per minute (cpm) thymidine incorporation from triplicate cultures.
# To investigate the feasibility of inhibition of MLR by Copolymer 1, an MLR system was developed in which Copolymer 1 was tested for its ability to inhibit the proliferation of B10.PL (H-2^u) responder cells to stimulator cells of either the same (PL/J) or different (BALB/c) H-2 haplotype. For comparison, the inhibitory MBP Ac 1-11[4A], MBP 35-47, a combination of Ac 1-1[4A]+MBP 35-47, MBP 89-101 and KM-core peptides, described in Schlegel et al. (1994), were used in the MLR experiments.
# The inhibition obtained by Copolymer 1 was similar (in response to minor histocompatibility antigen) or even higher (in response to major histocompatibility antigen) than the inhibition obtained with the combination of the two synthetic peptides Ac 1-11[4A] and MBP 35-47, which specifically bind to the class II molecules I-A^u and the I-E^u, respectively. The molar efficiency of Copolymer 1 of M.W. 6000 is even higher since the molecular weight of the synthetic peptides is 4–5 fold lower.
# [3] = tested on: skin graft rejection; test: Skin graft transplantation model for HVGD; format: in vivo, mice
# Experimental: Recipient mice were dorsally transplanted with circular pieces of donor skin. Mice were inspected daily. Grafts were considered rejected when no viable donor epidermis remained. The results are expressed in mean survival time (MST). P values were obtained by analysis of variance (ANOVA).
# […] The first Cop 1 treatment on day −7 was injected sc in ICFA as a depot dose. Control mice were treated daily with PBS alone and PBS with ICFA on day −7 before transplantation.
# Grafts were inspected daily. Rejection was considered positive when no viable donor epidermis remained. […]
substance,measurement,setting,value
Glatiramer acetate [Cop 1],long-term survival from lethal graft-versus-host disease,[1]; 600 μg per injection,improved long-term survival
same,animals (without GVHD) to the observation period of 140 days after transplant,"[1]; 600 μg per injection, Batch I",Nine of 25
same,mice survived more than 140 days after transplant,"[1]; 600 μg per injection, Batch I",56%
same,"overall disease severity (disease severity score, mean body weight curves)","[1]; 600 μg per injection, Batch I",improved overall disease severity
same,overall incidence of GVHD,"[1]; day 30 after transplant, Cop 1 Batch I",12%
same,overall incidence of GVHD,"[1]; day 70 after transplant, Cop 1 Batch I",48%
same,median onset of GVHD,"[1]; days after transplant, 600 μg per injection",73 days
same,"onset of GVHD, range","[1]; days after transplant, in 12/25 treated animals, 600 μg per injection",32 to 112 days
same,mice survived more than 140 days after transplant,"[1]; survivors/treated, 600 μg per injection, Cop 1 Batch I",14/25
same,inhibition of MLR,[2],63%
same,MST ± SD (Mean Survival Time of skin graft),"[3]; B10.D2 → BALB/c, H-2d, Cop 1 600 μg/day (ip+sc) from day −7",20.6 days and 20.6 ± 3.3 days
same,MST ± SD (Mean Survival Time of skin graft),"[3]; B10.D2 → BALB/c, H-2d, Cop 1 600 μg/day (ip+sc) from day −7, listed as Copolymer 1",20.6 days
same,mean graft survival time (MST),"[3]; B10.D2 → BALB/c, 600 μg/day, text refers to Table 6, PBS 26 days",34 days
same,MST ± SD (Mean Survival Time of skin graft),"[3]; B10.D2 → BALB/c, Cop 1 300 μg/day",20.4 ± 4.5 days
same,MST ± SD (Mean Survival Time of skin graft),"[3]; B10.D2 → BALB/c, Cop 1 300 μg/day, listed as Copolymer 1",20.4 days
same,MST ± SD (Mean Survival Time of skin graft),"[3]; B10PL → PL/J, H-2u, Cop 1 600 μg/day",17.6 ± 5.1
same,MST ± SD (Mean Survival Time of skin graft),"[3]; C57BL → C3HSW, H-2b → H-2d, Cop 1 600 μg/day",18.5 ± 3.3
same,MST ± SD (Mean Survival Time of skin graft),"[3]; Haplotype H-2b, Cop 1 600 μg/day",17.7 ± 2.1
